Experimental data from publication PMC6427912 (Journal of medicinal chemistry, 2019).
Like-named read-outs stand apart in the source and are kept apart here.

What was measured:
[1] = tested on: B. subtilis; assay: B. subtilis growth inhibition assay; assay type: cell-based, Bacillus subtilis
[2] = tested on: B. anthracis Sterne; assay type: cell-based, Bacillus anthracis; conditions: B. anthracis Sterne growth inhibition
[3] = tested on: S. aureus; assay: S. aureus growth inhibition assay; assay type: cell-based, Staphylococcus aureus; conditions: S. aureus growth inhibition
[4] = tested on: Mycobacterium smegmatis; assay: M. smegmatis growth inhibition assay; assay type: cell-based
[5] = tested on: HEK293 cells; assay: HEK293 cell growth inhibition assay; assay type: cell-based, human; conditions: HEK293 cell growth inhibition ED50, 24 hr incubation

Molecule | Bs ED50 ([1]; 12 hours) | Bs ED50 ([1]; value in parentheses) [µM] | Ba ED50 [2] [µg/mL] | Ba ED50 ([2]; value in parentheses) [µM] | Sa ED50 [3] [µg/mL] | Sa ED50 ([3]; value in parentheses) [µM] | Ms ED50 ([4]; 48 hours) [µg/mL] | Ms ED50 ([4]; value in parentheses) [µM] | HEK 293 [5] [µg/mL] | HEK 293 ([5]; value in parentheses) [µM]
CC(C)CCCC(C)CCOc1cccc(NCC(P(=O)(O)O)P(=O)(O)O)n1 (centres unmarked) [Compound 92, (2-((6-((3,7-Dimethyloctyl)oxy)pyridin-2-yl)amino)ethane-1,1-diyl)bis(phosphonic acid)] | 75 µg/mL | 170 | 4.2 | 9.6 | 60 | 140 | 200 | 460 | – | –
CC(C)CCCC(C)CCCn1cc[n+](CC(P(=O)([O-])O)P(=O)(O)O)c1 (centres unmarked) [Compound 75, Hydrogen(2-(1-(4,8-dimethylnonyl)-1H-imidazol-3-ium-3-yl)-1-phosphonoethyl) phosphonate] | 1.7 µg/mL | 4.1 | 1.8 | 4.4 | 26 | 63 | 1.4 | 3.4 | 181 | 440
CC(C)CCCC(C)CCOc1cc(NCC(P(=O)(O)O)P(=O)(O)O)ccn1 (centres unmarked) [Compound 87, (2-((2-((3,7-Dimethyloctyl)oxy)pyridin-4-yl)amino)ethane-1,1-diyl)bis(phosphonic acid)] | 21 µg/mL | 48 | 3.2 | 7.3 | 35 | 80 | 75 | 170 | 530 | 1200
CC(C)=CCC/C(C)=C/Cc1ccc[n+](CC(P(=O)([O-])O)P(=O)(O)O)c1 (centres unmarked) [Compound 103, 3-[(2E)-3,7-dimethylocta-2,6-dien-1-yl]-1-(2-hydrogenphosphonato-2-phosphonoethyl)pyridin-1-ium] | ~ 9.2 μg/mL | – | – | – | – | – | – | – | – | –
O=P(O)(O)C(CNc1nccs1)P(=O)(O)O [Compound 93] | 97 µg/mL | 340 | 2.3 | 8.0 | 230 | 800 | 290 | 1000 | – | –
CC(C)CCCC(C)CCNc1ccc[n+](CC(P(=O)([O-])O)P(=O)(O)O)c1 (centres unmarked) [Compound 78, Hydrogen(2-(3-((3,7-dimethyloctyl)amino)pyridin-1-ium-1-yl)-1-phosphonoethyl) phosphonate] | 2.4 µg/mL | 5.7 | 0.8 | 1.9 | 13 | 31 | 5.5 | 13 | 186 | 440
CC(C)CCCC(C)CCSc1cc[n+](CC(P(=O)([O-])O)P(=O)(O)O)cc1 (centres unmarked) [Compound 85, Hydrogen(2-(4-((3,7-dimethyloctyl)thio)pyridin-1-ium-1-yl)-1-phosphonoethyl) phosphonate] | 7.0 µg/mL | 16 | 1.1 | 2.5 | 31 | 71 | 70 | 160 | 440 | 1000
(((6-(4,8-Dimethylnonyl)pyridin-2-yl)amino)methylene)bis(phosphonic acid) [Compound 89] | 26 µg/mL | 60 | 3.0 | 6.9 | 32 | 73 | 93 | 210 | 480 | 1100
CC(C)CCCC(C)CCOc1ccnc(NCC(P(=O)(O)O)P(=O)(O)O)c1 (centres unmarked) [Compound 96, (2-((4-((3,7-Dimethyloctyl)oxy)pyridin-2-yl)amino)ethane-1,1-diyl)bis(phosphonic acid)] | 180 µg/mL | 420 | 11 | 26 | 52 | 120 | 100 | 240 | – | –
CC(C)CCCC(C)CCc1cnc(NCC(P(=O)(O)O)P(=O)(O)O)s1 (centres unmarked) [Compound 88, (2-((5-(3,7-Dimethyloctyl)thiazol-2-yl)amino)ethane-1,1-diyl)bis(phosphonic acid)] | 21 µg/mL | 49 | 7.4 | 17 | 36 | 84 | 150 | 350 | – | –
CC(C)CCCC(C)CCn1cc[n+](CC(P(=O)([O-])O)P(=O)(O)O)c1 (centres unmarked) [Compound 82, Hydrogen(2-(1-(3,7-dimethyloctyl)-1H-imidazol-3-ium-3-yl)-1-phosphonoethyl) phosphonate] | 4.6 µg/mL | 12 | 4.3 | 11 | 34 | 86 | 15 | 38 | 170 | 420
CC(C)CCCC(C)CCCC(C)CCOc1ccc[n+](CC(P(=O)([O-])O)P(=O)(O)O)c1 (centres unmarked) [Compound 90, Hydrogen(1-phosphono-2-(3-((3,7,11-trimethyldodecyl)oxy)pyridin-1-ium-1-yl)ethyl) phosphonate] | 36 µg/mL | 73 | 5.0 | 10 | 22 | 45 | 91 | 180 | – | –
CC(C)CCOc1ccc[n+](CC(P(=O)([O-])O)P(=O)(O)O)c1 (centres unmarked) [Compound 91, Hydrogen (2-(3-(isopentyloxy)pyridin-1-ium-1-yl)-1-phosphonoethyl)phosphonate] | 41 µg/mL | 120 | 8.6 | 24 | 17 | 48 | 65 | 180 | – | –
CC(C)CCCC(C)CCCC(C)CCCC(C)CCOc1ccc[n+](CC(P(=O)([O-])O)P(=O)(O)O)c1 (centres unmarked) [Compound 97, Hydrogen(1-phosphono-2-(3-((3,7,11,15-tetramethylhexadecyl)oxy)pyridin-1-ium-1-yl)ethyl)phosphonate] | 260 µg/mL | 460 | 7.7 | 14 | 25 | 44 | 210 | 370 | – | –
CC(C)CCCC(C)CCc1ccc[n+](CC(P(=O)([O-])O)P(=O)(O)O)c1 (centres unmarked) [Compound 102, Hydrogen (2-(3-(3,7-dimethyloctyl)pyridin-1-ium-1-yl)-1-phosphonoethyl) phosphonate] | 1.9 µg/mL | – | – | – | – | – | – | – | – | –
CC(C)CCCC(C)CCc1csc(NCC(P(=O)(O)O)P(=O)(O)O)n1 (centres unmarked) [Compound 86, (2-((4-(3,7-Dimethyloctyl)thiazol-2-yl)amino)ethane-1,1-diyl)bis(phosphonic acid)] | 8.3 µg/mL | 19 | 5.0 | 12 | 23 | 54 | 150 | 350 | – | –
CC(C)CCCC(C)c1cnc(NCC(P(=O)(O)O)P(=O)(O)O)s1 (centres unmarked) [Compound 94, (2-((5-(6-Methylheptan-2-yl)thiazol-2-yl)amino)ethane-1,1-diyl)bis(phosphonic acid)] | 100 µg/mL | 250 | 11 | 28 | 56 | 140 | 96 | 240 | – | –
